This is an account of results in ChEMBL document CHEMBL1201862, “PubChem BioAssay data set” (2004).

Test systems include A549; BT-549; DU-145; EKVX; HCT-15; Hs-578T; IGROV-1; KM12; MDA-MB-435; OVCAR-3; OVCAR-4; OVCAR-8; PC-3; RPMI-8226; RXF 393; SF-539; SK-MEL-2; SNB-75; CCRF-CEM; HCC 2998.
Common to all, as to experiment: NCI anticancer screen, dose series, 48 h

Molecules are shown by their SMILES.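 Step 1: Grow cells in 96-well plates. Step 2: Expose to compound for 48 hours at 5 concentrations. Step 3: Interpolate endpoints linearly; if unreached, use highest concentration. The concentration for 50% growth inhibition is given as GI50.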 Active and inactive are the calls of the source. Cut-off read from the data, not from the text of the source: active = GI50 up to about 1.1 µM and inactive = higher.

Regarding `N=C(N)NC(CC(=O)O)c1ccccc1` (stereo unspecified), the GI50 in the assay on A549 was > 100 µM (inactive); in the assay with BT-549 it was > 100 µM (inactive); in the assay with DU-145 it was > 100 µM (inactive); in the assay on EKVX, > 100 µM (inactive); in the assay on HCT-15 it was over 100 µM; in the assay with Hs-578T, > 100 µM (inactive). Moreover, the GI50 with IGROV-1, in the assay on KM12, in the assay with MDA-MB-435, in the assay on OVCAR-3, in the assay on OVCAR-4 and with OVCAR-8 was > 100 µM (inactive) throughout. In addition, the GI50 in the assay on PC-3, in the assay on RPMI-8226, with RXF 393, in the assay with SF-539, in the assay on SK-MEL-2 and with SNB-75 was > 100 µM (inactive) each time.
Regarding `CC(C)(C)C1CCC2c3c([nH]c4ccccc34)C3C(=O)N(c4ccc(C(=O)O)cc4)C(=O)C3C2C1` (stereo unspecified), the GI50 was 12.2 µM (inactive) with A549; 14.5 µM (inactive) with BT-549; 3.69 µM (inactive) in the assay with CCRF-CEM; 17.5 µM (inactive) in the assay on DU-145; 22 µM (inactive) in the assay on EKVX; 15.6 µM (inactive) in the assay with HCC 2998. Moreover, the GI50 was 12 µM with HCT-15; 17.6 µM (inactive) in the assay with Hs-578T; 18.5 µM (inactive) in the assay on IGROV-1; 2.96 µM (inactive) in the assay on MDA-MB-435; 12.4 µM (inactive) in the assay on OVCAR-3; 12 µM (inactive) in the assay with OVCAR-8. Further, the GI50 is 13.4 µM (inactive) in the assay on PC-3; 20 µM (inactive) with RPMI-8226; 10.9 µM (inactive) in the assay on RXF 393; 17.2 µM (inactive) in the assay with SF-539; 14.9 µM (inactive) with SK-MEL-2.
Turning to `C/C(=C/CC[C@]1(CO)CC[C@]2(CO)[C@H](CC[C@@H]3[C@@]4(C)CC[C@H](OC5OCC(O)C(O)C5OC5OC(CO)C(O)C(O)C5O)C(C)(C)[C@@H]4CC[C@]32C)[C@H]1O)CO` (stereo partly specified), the GI50 with A549, in the assay on BT-549, in the assay with CCRF-CEM, with DU-145, with EKVX and in the assay with Hs-578T was > 100 µM (inactive) in each case. The GI50 in the assay on IGROV-1, in the assay on KM12, with MDA-MB-435, in the assay on OVCAR-3, with OVCAR-4 and in the assay on OVCAR-8 was > 100 µM (inactive) in each case. Moreover, the GI50 with PC-3, with RPMI-8226, with RXF 393, with SF-539 and in the assay on SNB-75 was > 100 µM (inactive) throughout.
On to `COc1ccc(Nc2nc3ccccc3n3cccc23)cc1OC`, for which the GI50 in the assay on A549 is 17.5 µM (inactive); with BT-549 it was 18.5 µM (inactive); in the assay on CCRF-CEM, 1.05 µM (active); in the assay with DU-145, 17.1 µM (inactive); in the assay on EKVX it was 25.7 µM (inactive); in the assay with HCC 2998, 14.4 µM (inactive). Also, the GI50 with HCT-15 is 13.6 µM; in the assay on Hs-578T, 37.9 µM (inactive); with IGROV-1, 20.9 µM (inactive); in the assay with KM12, 13.1 µM (inactive); with MDA-MB-435 it was 13.8 µM (inactive); in the assay with OVCAR-3, 19.1 µM (inactive). Further, the GI50 with OVCAR-8 was 15.9 µM (inactive); in the assay with PC-3, 11.7 µM (inactive); in the assay with RPMI-8226 it was 11.8 µM (inactive); with RXF 393, 12.9 µM (inactive); in the assay on SF-539 it was 16.6 µM (inactive); in the assay on SK-MEL-2 it was 19.2 µM (inactive).
As for `CC1(C)CC(=O)c2c(nc3ccc4ccccc4c3c2-c2ccc(NC(=O)CCCCCCCCC(=O)Nc3ccc(-c4c5c(nc6ccc7ccccc7c46)CC(C)(C)CC5=O)cc3)cc2)C1`, the GI50 in the assay with A549 is > 100 µM (inactive); in the assay with BT-549, > 100 µM (inactive); with CCRF-CEM it was > 100 µM (inactive); with DU-145, > 100 µM (inactive); in the assay with EKVX, > 100 µM (inactive); in the assay on HCT-15 it was over 100 µM. Also, the GI50 in the assay on Hs-578T, with IGROV-1, in the assay with KM12, in the assay with MDA-MB-435, in the assay on OVCAR-3 and in the assay on OVCAR-8 was > 100 µM (inactive) each time. In addition, the GI50 in the assay with PC-3, with RPMI-8226, in the assay on SF-539 and with SK-MEL-2 was > 100 µM (inactive) each time.
For the compound `Cc1cn(CC(=S)NCCc2c[nH]c3ccccc23)c(=O)[nH]c1=O`, the GI50 in the assay with A549 is 74.1 µM (inactive); with BT-549, > 100 µM (inactive); with CCRF-CEM, 44.3 µM (inactive); in the assay on DU-145, > 100 µM (inactive); in the assay with EKVX, 17 µM (inactive); with HCT-15, over 100 µM. Also, the GI50 is 84.1 µM (inactive) in the assay on Hs-578T; > 100 µM (inactive) in the assay with IGROV-1; > 100 µM (inactive) in the assay on KM12; 74.5 µM (inactive) in the assay with MDA-MB-435; > 100 µM (inactive) in the assay with OVCAR-3; 48.8 µM (inactive) with OVCAR-4. The GI50 in the assay with PC-3 was 77.1 µM (inactive); in the assay on RPMI-8226 it was 46.5 µM (inactive); in the assay on RXF 393, > 100 µM (inactive); in the assay with SF-539, > 100 µM (inactive); in the assay on SK-MEL-2, > 100 µM (inactive).
Consider `CC1(O)CC(=O)c2c(cc3ccc(-c4c5c(c(O)c6c(O)cccc46)C(=O)CC(C)(O)C5)c(O)c3c2O)C1` (stereo unspecified), for which the GI50 with A549 was 0.365 µM (active); in the assay with BT-549 it was 0.347 µM (active); in the assay on CCRF-CEM it was 0.38 µM (active); in the assay with DU-145, 0.33 µM (active); in the assay with EKVX, 0.562 µM (active); with HCT-15 it was 0.09 µM. For the same compound, the GI50 was 0.265 µM (active) with Hs-578T; 0.348 µM (active) in the assay with IGROV-1; 0.0278 µM (active) with KM12; 0.279 µM (active) in the assay with MDA-MB-435; 0.0953 µM (active) in the assay on OVCAR-3; 0.27 µM (active) in the assay on OVCAR-4. Also, the GI50 with OVCAR-8 is 0.332 µM (active); in the assay with PC-3, 0.0834 µM (active); in the assay on RPMI-8226, 0.0509 µM (active); with RXF 393 it was < 0.01 µM (active); in the assay with SF-539, 0.174 µM (active); with SK-MEL-2 it was 0.271 µM (active). For the same compound, the GI50 in the assay with SNB-75 was 0.129 µM (active).
Consider `CC(/C=C/c1ccc([N+](=O)[O-])o1)=N/N1CC(CN2CCOCC2)OC1=O` (stereo unspecified), for which the GI50 was 26.8 µM (inactive) with A549; 6.58 µM (inactive) in the assay on BT-549; 0.771 µM (active) in the assay on CCRF-CEM; 19.9 µM (inactive) in the assay on DU-145; 30.9 µM (inactive) in the assay with EKVX; 28.9 µM (inactive) with HCC 2998. Further, the GI50 was 16.5 µM with HCT-15; 44.8 µM (inactive) in the assay with Hs-578T; 42.8 µM (inactive) in the assay on KM12; 18.7 µM (inactive) with MDA-MB-435; 16.1 µM (inactive) with OVCAR-3; 14 µM (inactive) in the assay on OVCAR-4. For the same compound, the GI50 is 16.5 µM (inactive) with OVCAR-8; 14 µM (inactive) in the assay with PC-3; 9.64 µM (inactive) with RPMI-8226; 22.9 µM (inactive) with SF-539; 16.9 µM (inactive) with SK-MEL-2.
For the compound `COc1ccc(-n2c3c(c4cc(O)ccc42)C(=O)c2ccccc2C3=O)cc1`, the GI50 with A549 is 11.7 µM (inactive); in the assay with BT-549, 11.2 µM (inactive); in the assay with DU-145, 19.1 µM (inactive); in the assay with EKVX it was 4.74 µM (inactive); in the assay on HCT-15, over 100 µM; with Hs-578T, 7.24 µM (inactive). Besides, the GI50 in the assay with IGROV-1 is 3.79 µM (inactive); in the assay on KM12 it was 2.13 µM (inactive); in the assay on MDA-MB-435, 13.8 µM (inactive); with OVCAR-3, 8.38 µM (inactive); with OVCAR-4, 17.4 µM (inactive); in the assay with OVCAR-8 it was 2.52 µM (inactive). Moreover, the GI50 in the assay with PC-3 was 5.32 µM (inactive); in the assay on RPMI-8226, 13.8 µM (inactive); in the assay with RXF 393, 2.84 µM (inactive); with SF-539 it was 1.05 µM (active); with SK-MEL-2 it was 5.75 µM (inactive).
As for `O=C1c2ccccc2C(=O)c2c1ccc(C1C(=O)c3ccccc3C1=O)c2-c1c(C2C(=O)c3ccccc3C2=O)ccc2c1C(=O)c1ccccc1C2=O`, the GI50 is > 100 µM (inactive) in the assay with A549; > 100 µM (inactive) in the assay with BT-549; > 100 µM (inactive) in the assay with DU-145; > 100 µM (inactive) in the assay with EKVX; over 100 µM with HCT-15; > 100 µM (inactive) in the assay on Hs-578T. Moreover, the GI50 with IGROV-1, in the assay with KM12, in the assay on MDA-MB-435, in the assay on OVCAR-3, in the assay on OVCAR-4 and with OVCAR-8 was > 100 µM (inactive) throughout. Besides, the GI50 is > 100 µM (inactive) in the assay on PC-3; 13.1 µM (inactive) in the assay with RPMI-8226; > 100 µM (inactive) in the assay with RXF 393; > 100 µM (inactive) in the assay on SF-539; > 100 µM (inactive) in the assay with SK-MEL-2; > 100 µM (inactive) in the assay on SNB-75.
As for `CSc1ccc(/C=C2\N=C(c3ccccc3)N(NC(=O)c3c(Cl)c(Cl)c(Cl)c(Cl)c3-c3nc4ccccc4[nH]3)C2=O)cc1`, the GI50 in the assay on A549 was 30.1 µM (inactive); in the assay on BT-549, 25.3 µM (inactive); in the assay with CCRF-CEM it was 25.9 µM (inactive); in the assay on DU-145, 28.4 µM (inactive); with EKVX, 25.5 µM (inactive); with HCC 2998 it was 9.59 µM (inactive). Further, the GI50 with HCT-15 is 15.1 µM; in the assay on Hs-578T, 34.8 µM (inactive); with IGROV-1 it was 1.79 µM (inactive); in the assay on KM12 it was 6.84 µM (inactive); with MDA-MB-435, 3.27 µM (inactive); in the assay with OVCAR-3, 26.6 µM (inactive). Besides, the GI50 with OVCAR-8 is 37.8 µM (inactive); in the assay on PC-3, 36.6 µM (inactive); with SF-539, 33 µM (inactive); with SK-MEL-2 it was 34.9 µM (inactive); in the assay with SNB-75, 8.3 µM (inactive).
